Measured values as given in US20040235071A1, “Methods and compositions for treating cancer using 15986, 2188, 20743, 9148, 9151, 9791, 44252, 14184, 42461, 8204, 7970, 25552, 21657, 26492, 2411, 15088, 1905, 28899, 63380, 33935, 10480, 12686, 25501, 17694, 15701, 53062, 49908, 21612, 38949, 6216, 46863, 9235, 2201, 6985, 9883, 12238, 18057, …” (Millennium Pharmaceuticals, Inc., priority 2002, published 2004).

Tests used:
Type in all cases: cell-based, human
39228 mRNA = assay: TaqMan analysis of the Cox inhibitor study, 39228 mRNA expression in HUVEC; conditions: 40-100 mM, 10 h, relative to a vehicle (DMSO) control
Excerpt: (§1) This example describes the TaqMan™ procedure. The Taqman™ procedure is a quantitative, reverse transcription PCR-based approach for detecting mRNA. The RT-PCR reaction exploits the 5′ nuclease activity of AmpliTaq Gold™ DNA Polymerase to cleave a TaqMan™ probe during PCR. Briefly, cDNA was generated from the samples of interest, e.g., heart, kidney, liver, skeletal muscle, and various vessels, and used as the starting material for PCR amplification. In addition to the 5′ and 3′ gene-specific primers, a gene-specific oligonucleotide probe (complementary to the region being amplified) was included in the reaction (i.e., the Taqman™ probe). […]
(§2) During the PCR reaction, cleavage of the probe separates the reporter dye and the quencher dye, resulting in increased fluorescence of the reporter. Accumulation of PCR products is detected directly by monitoring the increase in fluorescence of the reporter dye. When the probe is intact, the proximity of the reporter dye to the quencher dye results in suppression of the reporter fluorescence. […]

20743 mRNA = assay: Breast cancer cell model panel, 20743 mRNA expression in MCF10A cells
Method: On a breast cancer cell model panel, 20743 mRNA expression in MCF10A cells was increased 4-fold by 8 hrs treatment of 10 ng/ml EGF and was increased 3-fold by 3 hrs treatment with 10 nM IGF1.
as §1, §2

2201 = assay: Breast cancer cell model panel, 2201 in MCF10A cells; conditions: 8 hour treatment, 10 ng/ml
Method: In a breast cancer cell model panel, 2201 is increased 3-fold after an 8 hour treatment of MCF10A cells with 10 ng/ml EGF.
as §1, §2

15701 mRNA = assay: TaqMan PI3-kinase panel, 15701 mRNA expression; conditions: 48 hours
Excerpt: In an expanded breast cancer tissue panel, 15701 mRNA was expressed at increased levels (2-131 fold) in 14/15 primary breast tumor samples when compared to 4/4 normal breast tissue samples. In a breast cancer cell model panel, 15701 mRNA was expressed at a 4-fold increased level in transformed, activated H-ras-expressing MCF10AT01 cells vs. normal MCF10A cells, and at a 5-fold increased level in transformed, activated H-ras-expressing MCF10AT3B cells when compared to normal MCF10A cells. 15701 mRNA was expressed in many breast tumor cell lines, including MCF-7, T47D, ZR-75 and MDA-MB-468. In the PI3-kinase panel, 15701 mRNA expression was decreased in MDA-MB-468, MCF-7 and LNCaP cells after 48 hours treatment with the PI3-kinase inhibitor LY294002. 15701 mRNA expression in MDA-MB-468 cells decreased 7-fold after 48 hours with LY294002 (115 uM). […]
This example describes the TaqMan™ procedure. The Taqman™ procedure is a quantitative, reverse transcription PCR-based approach for detecting mRNA. […]
as §2

CS(=O)(=O)Nc1ccc([N+](=O)[O-])cc1OC1CCCCC1 [NS398]
39228 mRNA expression (39228 mRNA): increased

EGF: epidermal growth factor (NSDSECPLSHDGYCLHDGVCMYIEALDKYACNCVVGYIGERCQYRDLKWWELR; UniProt P01133 971-1023, looked up)
20743 mRNA expression increase (20743 mRNA; 8 hrs treatment, 10 ng/ml): 4 fold
2201 increase 2201: 3 fold

CC1=C(CC(=O)O)c2cc(F)ccc2/C1=C\c1ccc([S+](C)[O-])cc1 (stereo not shown) [Sulindac]
39228 mRNA expression (39228 mRNA): increased

O=c1cc(N2CCOCC2)oc2c(-c3ccccc3)cccc12 [LY294002]
15701 mRNA expression decrease (15701 mRNA; MCF-7 cells, 30 uM): 16 fold
15701 mRNA expression decrease (15701 mRNA; MDA-MB-468 cells, 115 uM): 7 fold

IGF1: growth factor used to treat MCF10A cells
20743 mRNA expression increase (20743 mRNA; 3 hrs treatment, 10 nM): 3 fold
